{
  "source": "patent EP1464336A1",
  "about": "“Use of tryprostatin A for the reversal of cancer drug resistance” (Humboldt-Universität zu Berlin, priority 2003, dated 2004)",
  "key": {"[1]": {"tested_on": "drug-sensitive, and drug-resistant gastric carcinoma and breast cancer cells", "assay": "Time course of mitoxantrone accumulation (flow cytometry)", "assay_type": "cell-based, human", "conditions": "10 µM mitoxantrone and TPS-A for increasing time periods (Fig 5A, 5B)", "protocol": "Cellular mitoxantrone accumulation was determined according to the procedure described in Lage H et al., FEBS Lett 2001;503:179-84. Briefly, 4 x 10^5 cells were seeded out in 6-well plates 78 hours prior to the experiment. Incubation with mitoxantrone (0, 1,5 and 10 µg/ml) was performed for 60 minutes at 37°C and 70-80 % cellular confluence. For kinetics of intracellular enrichment of mitoxantrone, cells were exposed to 10 µg/ml mitoxantrone for 0, 5, 10 and 60 min. Cells were washed with ice-cold PBS, trypsinized and resuspended in 4 °C PBS at a concentration of 4 x 10^5 cells/ml. Intracellular fluorescence of mitoxantrone was determined by flow cytometry (Becton-Dickinson, San Jose, CA). The cells were excited at 480 nm and emission was measured at 630 nm. A minimum of 10^4 cells was analyzed for each sample. All assays were performed at least in three independent experiments, each time with triplicate wells.\nTo analyze the time course of MDR modulating effects of TPS-A, drug-sensitive, and drug-resistant gastric carcinoma and breast cancer cells were incubated with 10 µM mitoxantrone and TPS-A for increasing time periods."}, "[2]": {"tested_on": "MDR1 Pgp overexpressing subline (EPG85-257RDB)", "assay": "C6-NBD-PS outward translocation assay", "assay_type": "cell-based, human", "conditions": "10 µM inhibitor; 30 minutes at 37°C (Fig. 8)", "protocol": "(§1) To measure redistribution of C6-NBD-PS from the cytoplasmic to the exoplasmic leaflet, labelling of the cytoplasmic leaflet is preconditional. Previously, we have introduced a method to achieve efficient labeling of the plasma membrane inner leaflet of the gastric carcinoma cell line EPG85-257 (Pohl, A., Lage, H., Müller, P., Pomorksi, T., and Herrmann. A. (2002) Biochem. J. 365, 259-268). Briefly, cells were preincubated with or without MDR inhibitors, labelled with 5 µM C6-NBD-PS, and incubated at 20°C for 30 minutes to allow inward movement of the NBD analogue. C6-NBD-PS remaining on the cell surface was extracted twice by incubation with 2% (w/v) BSA in mPBS for 10 minutes on ice. Before starting the outward translocation assay, the medium was removed, and cells were washed with ice-cold mPBS. For t=0', ice-cold medium containing 2% (w/v) BSA and 5 mM DFP ( = diisopropyl fluoro-phosphate) in mPBS with or without inhibitor was immediately added to the cell dish for 10 minutes. To measure C6-NBD-PS outward translocation, medium prewarmed to 37°C was added to the dish, and cells were incubated at 37°C for 30 minutes (t = 30'). Removal of the BSA-containing media and a second extraction with 2% BSA in mPBS for 10 minutes terminated incubations, followed by lipid analysis.\n(§2) After the incubations, the second BSA back exchange medium was pooled with the first, and cells scraped into mPBS. For analysis of outward translocation and of metabolic conversion of C6-NBD-PS, lipids from both scraped cells and media were extracted with isopropanol/chloroform/(5.5:1, v/v) to prevent substantial loss into the aqueous phase. Samples were centrifuged at 780 g for 5 minutes, the supernatant transferred into new glass tubes and dried, dissolved in chloroform/methanol (1:1) and quantified spectroscopically. For C6-NBD-PC analysis, lipids from both cells and incubation media were extracted by the method of Bligh and Dyer (Bligh, E., and Dyer, W. (1959) Can. J Biochem. Physiol. 37, 911-917) using 20 mM acetic acid in the aqueous phase. After 2-D separation [I, chloroform/methanol/25% ammonium hydroxide (65:25:4, v/v); II, chloroform/acetone/methanol/acetic acid/water (10:4:2:2:1, v/v)] on thin layer chromatography plates, fluorescent lipid spots were visualized under ultraviolet light, scraped, and quantified as described before (Pomorski, T., Müller, P., Zimmermann, B., Burger, K., Devaux, P., and Herrmann, A. (1996) J. Cell Sci. 109, 687-698)."}, "[3]": {"tested_on": "BCRP overexpressing cells (EPG85-257RNOV)", "assay": "C6-NBD-PS outward translocation assay", "assay_type": "cell-based, human", "conditions": "pretreatment with 10 µM inhibitor; 30 minutes at 37°C (Fig. 8)", "protocol": "as §1, §2"}, "[4]": {"tested_on": "control cells (EPG85-257P)", "assay": "C6-NBD-PS outward translocation assay", "assay_type": "cell-based, human", "conditions": "10 µM inhibitor; 30 minutes at 37°C (Fig. 8)", "protocol": "as §1, §2"}, "[5]": {"tested_on": "gastric and breast carcinoma cell variants", "assay": "Modulation of chemoresistance to mitoxantrone or daunorubicin (SRB proliferation assay, IC50/DMF)", "assay_type": "cell-based, human", "protocol": "(§3) Modulation of chemoresistance was tested using a proliferation assay based on sulforhodamine B (SRB), a protein-binding reagent (Skehan P et al., J Natl Cancer Inst 1990;82:1107-12), as described in Lage H et al., Int J Hyperthermia 2000;16:291-303; Lage H et al., FEBS Lett 2001;503:179-84; Lage H et al., FEBS Lett 2001;494:54-9. In each experiment, 350 cells per well were seeded in the presence or absence of TPS-A in 96-well plates in complete medium and allowed to attach overnight. Mitoxantrone or daunorubicin were added in a dilution series in triplicate wells. After 5 days, when unselected wells were still subconfluent, incubation was terminated by replacing the medium with 10 % trichloroacetic acid, followed by incubation at 4 °C for 1 h. After samples were washed 5 times with water and air-dried, 50 µl 0.4 % SRB (Sigma, St. Louis, MO) in 1 % acetic acid was added and samples were incubated for 10 min at room temperature. Unbound dye was eliminated by washing the plates 5 times with 1 % acetic acid. After air-drying and re-solubilisation of the protein-bound dye in 10 mM Tris-HCl (pH 8.0), absorbance was quantified at 562.5 nm. To determine the IC50-value, the absorbance difference of control cells without drug was set to be 100 %. Linear regression of data was done for the linear part of the curve, and IC50-values were calculated from multiple, at least three independent experiments for each cell line.\nThe cellular sensitivity to mitoxantrone and daunorubicin was assessed by determining the IC50 values without or with increasing concentrations of TPS-A or GF120918 as a positive control in the different cancer cell variants. Table 1 presents the data of TPS-A reversal of mitoxantrone and daunorubicin resistance in different gastric and breast carcinoma cell variants, respectively. […] In each case, the equation DMF=(IC50 (-CS))/(IC50 (+CS)) [formula] was used to calculate the dose modifying factor (DMF), comparing the IC50 values in the presence (+CS) or absence (-CS) of the corresponding chemosensitizer (CS) TPS-A or GF120918."}, "[6]": {"tested_on": "microtubule-associated protein (MAP)-dependent microtubule assembly", "conditions": "literature (Usui T et al., Biochem J 1998); cited from earlier work"}, "[7]": {"tested_on": "MCF-7 breast cancer-derived cell variants", "assay": "Cytotoxicity of the MDR modulator alone (SRB proliferation assay)", "assay_type": "cell-based, human", "protocol": "as §3, with “Unbound dye was eliminated by washing the plates 5 times with 1 % acetic acid.” left out, “To determine the IC50-value, the absorbance difference of control cells without drug was set to be 100 %.” left out\nThe cytotoxicity of the MDR modulators TPS-A and GF120918 on drug-sensitive and drug-resistant gastric and breast cancer cell lines was initially assessed."}},
  "note": "“Also recorded” adds a separate entry of the source.",
  "data": [
    {"compound": "COc1ccc2c(C[C@@H]3NC(=O)[C@@H]4CCCN4C3=O)c(CC=C(C)C)[nH]c2c1", "note": "[TPS-A, tryprostatin A]", "values": [
      {"measurement": "chemosensitizing effects over time (mitoxantrone accumulation)", "setting": "[1]", "result": "time-dependent manner"},
      {"measurement": "PS analogue outward translocation (MDR1 Pgp lipid transport activity)", "setting": "[2]", "result": "did not affect"},
      {"measurement": "amount of C6-NBD-PS in the BSA containing medium (outward translocation)", "setting": "[3]", "result": "sharp and highly significant decrease"},
      {"measurement": "PS transport (C6-NBD-PS outward translocation)", "setting": "[4]", "result": "did not affect PS transport significantly"},
      {"measurement": "sensitization to treatment with mitoxantrone", "setting": "[5]; TPS-A, BCRP-expressing gastric and breast cancer cells (Table 1, Figure 2A)", "result": "dose-depending sensitization"},
      {"measurement": "effect on sensitivity to daunorubicin", "setting": "[5]; increasing concentrations of TPS-A, drug-sensitive, P-gp- or BCRP-expressing carcinoma cells (Table 1, Figure 2B)", "result": "No significant effect"},
      {"measurement": "final concentration inhibiting MAP-dependent microtubule assembly / cell cycle progression at the M phase", "setting": "[6]", "result": 250, "unit": "µM"},
      {"measurement": "effect on the cell proliferation", "setting": "[7]; 50 µM TPS-A alone in the cell culture medium", "result": "without any effect on the cell proliferation; also recorded: did not show any cytotoxic or growth-inhibiting effects"},
      {"measurement": "concentration necessary to obtain a level of drug sensitivity beyond that found for 1 µM GF120918", "setting": "[7]; MCF-7-derived breast cancer model system", "result": 50, "unit": "µM"}
    ]}
  ]
}
